Experimental data: patent US11530244B2, “Cyclic polypeptides for PCSK9 inhibition” (priority 2018, dated 2022)
pIC50: −log10 of the molar value. Starred links: 1 amine or outer side, 2 acyl side, 3 side chain; linkers in the order of their positions; H or OH if unused. Positions of bridges follow the written chain, without caps; N, C: chain ends. Non-standard residues stand in square brackets, D forms with d. Residues, ends and D or L forms follow the SMILES beside them. Groups on a side chain read outwards from the residue. *: point of attachment. Phe(3-CH2NH2) = O=C([C@H](Cc1cccc(CN[*:3])c1)N[*:1])[*:2]; PEG12 = NCCOCCOCCOCCOCCOCCOCCOCCOCCOCCOCCOCCOCCC(=O)O; X1 = O=C1CC[C@@H](C(=O)[*:1])N1CCCSCc1cccc(C[*:2])c1; NHCH2C6H4(p)CH2CH2NH = c1cc(CN[*:1])ccc1CCN[*:2]; Trp(5-F) = N[C@@H](Cc1c[nH]c2ccc(F)cc12)C(=O)O; Pro(cis-4-F) = O=C(O)[C@@H]1C[C@H](F)CN1; γGlu = O=C(O)[C@H](CCC(=O)[*:2])N[*:1]; mXylylene = c1cc(C[*:1])cc(C[*:2])c1; AEF = NCCOc1ccc(C[C@H](N)C(=O)O)cc1; X48 = CC(N[*:1])c1ncc(C(=O)[*:2])s1; Palmitoyl = CCCCCCCCCCCCCCCC(=O)*; αMeP = C[C@@]1(C(=O)O)CCCN1; AEEA = NCCOCCOCC(=O)O; Glycolyl = O=C(CO)*; Mpa = O=C(O)CCS

Experiments:
PCSK9 [1] = target: T1, PCSK9 (Homo sapiens (Human), UniProt Q8NBP7); assay: PCSK9 Alexa FRET Standard assay (displacement of AlexaFluor647 tagged cyclic peptide Reagent A); format: binding; conditions: PCSK9 Alexa FRET Standard assay, 0.5 nM PCSK9, 20 nM AF cyclic peptide Reagent A; read-out: IC50
T1 sequence (Q8NBP7 153-692): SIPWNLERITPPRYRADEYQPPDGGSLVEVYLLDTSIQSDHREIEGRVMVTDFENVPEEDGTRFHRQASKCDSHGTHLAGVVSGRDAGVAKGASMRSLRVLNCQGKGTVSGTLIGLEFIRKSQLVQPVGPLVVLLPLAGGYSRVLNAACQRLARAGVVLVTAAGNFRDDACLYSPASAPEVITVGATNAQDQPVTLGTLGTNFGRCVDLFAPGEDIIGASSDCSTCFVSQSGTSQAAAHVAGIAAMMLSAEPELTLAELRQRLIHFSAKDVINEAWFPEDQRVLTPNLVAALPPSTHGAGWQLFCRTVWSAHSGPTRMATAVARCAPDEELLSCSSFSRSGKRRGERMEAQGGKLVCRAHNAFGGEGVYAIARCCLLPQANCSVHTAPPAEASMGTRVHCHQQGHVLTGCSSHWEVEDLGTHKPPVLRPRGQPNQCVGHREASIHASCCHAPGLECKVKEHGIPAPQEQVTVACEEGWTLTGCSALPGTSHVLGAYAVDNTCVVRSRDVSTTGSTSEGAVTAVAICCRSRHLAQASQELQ
In short: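 TR-FRET displacement: 0.5 nM biotinylated PCSK9 with 1.25 nM Strep-Eu and 20 nM AlexaFluor-tagged cyclic peptide (final) in 50 mM HEPES pH 7.4, 0.15 M NaCl, 5 mM CaCl2, 0.01% BSA, 0.01% P20, ≥2 h at room temperature. IC50 from sigmoidal fit, converted to Ki via peptide KD; falling Eu counts flagged false positives.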

PCSK9 [2] = target: T1, PCSK9; assay: PCSK9 Alexa FRET Plus assay (displacement of AlexaFluor647 tagged cyclic peptide Reagent B); format: binding; conditions: 0.5 nM PCSK9, 960 nM AF cyclic peptide Reagent B
Procedure: A solution containing 1 nM biotinylated PCSK9+2.5 nM Lance Streptavidin Europium (Strep-Eu) was made in 50 mM HEPES pH 7.4, 0.15 M NaCl, 5 mM CaCl2), 0.01% BSA, and 0.01% Surfactant P20. A separate solution containing 1920 nM of the AlexaFluor tagged cyclic peptide was made in the same buffer system. An Echo was used to transfer 0.075 ul of compound plus 0.675 ul of DMSO to each well of an assay plate followed by the addition of 15 ul of PCSK9+Stept-Eu and 15 ul of AF peptide. The final assay volume was 30.750 ul containing 0.5 nM PCSK9, 1.25 nM Strep-Eu, and 960 nM AF cyclic peptide. The reaction was incubated at room temperature for at least two hours prior to fluorescence measurements using an Envision Multilabel Reader. IC50 values were determined by fitting data to a sigmoidal dose-response curve using nonlinear regression. Ki was then calculated from the IC50 and the KD of AF cyclic peptide. Counts (B-counts) of the europium-labeled PCSK9 were followed to observe if compounds were adversely affecting PCSK9. A fall off of the B-counts likely indicated a false positive of inhibition. Data from this procedure was reported as “P=‘numerical value’ (nanomolar)”

[3] = Alexa FRET Plus, read-out: IC50

Compound	pIC50 (PCSK9 [1])	pIC50 (PCSK9 [2]; [3])	pIC50 (PCSK9 [2]; IC50, Alexa FRET Plus)
CCCCCCCCCCCCCCCC(=O)N[C@@H](CCC(=O)NCCOCCOCCOCCOCCOCCOCCOCCOCCOCCOCCOCCOCCC(=O)NCc1cccc(C[C@@H]2NC(=O)[C@@H](C)NC(=O)[C@H](CCCCN)NC(=O)CCSCc3cccc(c3)CSC[C@@H](C(N)=O)NC(=O)[C@]3(C)CCCN3C(=O)[C@H](Cc3ccc(O)cc3)NC(=O)[C@H](Cc3cnc[nH]3)NC(=O)[C@H](CC(=O)O)NC(=O)[C@H](Cc3c[nH]c4ccc(F)cc34)NC2=O)c1)C(=O)O [Compound 478] ([Mpa]K[dA][Phe(3-CH2NH2)]([PEG12-γGlu-Palmitoyl])[Trp(5-F)]DHY[αMeP]C-NH2; linker 1-10 via mXylylene)	4.30 to 4.68	5.30 to 6.30	–
COc1ccc(C[C@@H]2NC(=O)[C@H]([C@@H](C)O)NC(=O)[C@@H]3C[C@H](F)CN3C(=O)[C@H](Cc3c[nH]c4ccc(F)cc34)NC(=O)[C@H](Cc3c[nH]c4ccc(F)cc34)NC(=O)[C@@H](C)NC(=O)CNC(=O)[C@@H](NC(C)=O)CCNCc3ccc(cc3)C[C@@H](C(N)=O)NC(=O)[C@]3(C)CCCN3C2=O)cc1 [Compound 102]	7.00 to 9.96	–	5.30 to 6.30
COc1ccc(C[C@@H]2NC(=O)[C@H]([C@@H](C)O)NC(=O)[C@@H]3C[C@H](F)CN3C(=O)[C@H](Cc3c[nH]c4ccc(F)cc34)NC(=O)[C@H](Cc3c[nH]c4ccc(F)cc34)NC(=O)[C@@H](C)NC(=O)[C@H](CCCCN)NC(=O)[C@@H](NC(=O)CO)CC(=O)NCCOc3ccc(cc3)C[C@@H](C(N)=O)NC(=O)[C@]3(C)CCCN3C2=O)cc1 [Compound 115] (Glycolyl-DK[dA][Trp(5-F)][Trp(5-F)][Pro(cis-4-F)]TY(Me)[αMeP][AEF]-NH2; lactam 1-10)	6.00 to 7.00	5.30 to 6.30	–
C[C@@]12CCCN1C(=O)[C@H](Cc1ccc(O)cc1)NC(=O)[C@H]1CS[C@H]3CC[C@H](NC(=O)[C@H](Cc4c[nH]c5ccc(F)cc45)NC(=O)[C@H](Cc4c[nH]c5ccc(F)cc45)NC(=O)CNC(=O)[C@H](CCCCN)NC(=O)CCSCc4cccc(c4)CSC[C@@H](C(N)=O)NC2=O)C(=O)N31 [Compound 475]	4.30 to 4.68	5.30 to 6.30	–
COc1ccc(C[C@@H]2NC(=O)[C@H]([C@@H](C)O)NC(=O)[C@@H]3C[C@H](F)CN3C(=O)[C@H](Cc3c[nH]c4ccc(F)cc34)NC(=O)[C@H](Cc3c[nH]c4ccc(F)cc34)NC(=O)[C@@H](C)NC(=O)[C@H](CCCCN)NC(=O)[C@@H](NC(C)=O)CC(=O)NCc3ccc(cc3)CCNC(=O)[C@]3(C)CCCN3C2=O)cc1 [Compound 095] (Ac-DK[dA][Trp(5-F)][Trp(5-F)][Pro(cis-4-F)]TY(Me)[αMeP]; linker 1-C via NHCH2C6H4(p)CH2CH2NH)	6.00 to 7.00	5.30 to 6.30	–

More lines, main results first:

pIC50 (PCSK9 [1])	pIC50 (PCSK9 [2]; [3])	Compound	pIC50 (PCSK9 [2]; IC50, Alexa FRET Plus)
6.00 to 7.00	5.30 to 6.30	CC1NC(=O)[C@H](Cc2c[nH]c3ccc(F)cc23)NC(=O)[C@H](Cc2c[nH]c3ccc(F)cc23)NC(=O)[C@@H](C)NC(=O)[C@H](CCCCN)NC(=O)CCSCc2cccc(c2)CSC[C@@H](C(N)=O)NC(=O)[C@]2(C)CCCN2C(=O)[C@H](Cc2ccc(O)cc2)NC(=O)C2=CN=C1S2 (stereo partly shown) [Compound 480] ([Mpa]K[dA][Trp(5-F)][Trp(5-F)][X48]Y[αMeP]C-NH2; linker 1-9 via mXylylene)	–
7.00 to 9.96	7.00 to 10.00	CCCCCCCCCCCCCCCC(=O)N[C@@H](CCC(=O)NCCOCCOCC(=O)NCCOCCOCC(=O)NCCCC[C@@H]1NC(=O)[C@H](CCCCN)NC(=O)CCSCc2cccc(c2)CSC[C@@H](C(N)=O)NC(=O)[C@]2(C)CCCN2C(=O)[C@H](Cc2ccc(O)cc2)NC(=O)[C@H](Cc2cnc[nH]2)NC(=O)[C@H](CC(=O)O)NC(=O)[C@H](Cc2c[nH]c3ccc(F)cc23)NC(=O)[C@H](Cc2c[nH]c3ccc(F)cc23)NC1=O)C(=O)O [Compound 452] ([Mpa]KK([AEEA-AEEA-γGlu-Palmitoyl])[Trp(5-F)][Trp(5-F)]DHY[αMeP]C-NH2; linker 1-10 via mXylylene)	–
7.00 to 9.96	6.30 to 7.00	C[C@@]12CCCN1C(=O)[C@H](Cc1ccc(O)cc1)NC(=O)[C@H](Cc1c[nH]cn1)NC(=O)[C@H](CC(=O)O)NC(=O)[C@H](Cc1c[nH]c3ccc(F)cc13)NC(=O)[C@H](Cc1c[nH]c3ccc(F)cc13)NC(=O)CNC(=O)[C@@H]1CCC(=O)N1CCCSCc1cccc(c1)CSC[C@@H](C(N)=O)NC2=O [Compound 482] (G[Trp(5-F)][Trp(5-F)]DHY[αMeP]C-NH2; linker N-8 via X1)	–
